According to patent US12404260B2, “Pyridine rings containing derivatives as MALT1 inhibitors” (Janssen Pharmaceutica NV, priority 2019, dated 2025):

Legend:
[1] = molecular target: T1, full-length MALT1 protein (Strep-MALT1(1-824)-His) (Homo sapiens, UniProt Q9UDY8); test: MALT1 Biochemical Protease Assay; details: 10 nM FL MALT1, 200 μM Ac-LRSR-AMC, 50 min pre-incubation, 4 h at RT; read-out: MALT1_Biochemical activity (Ac-LRSR-amc) IC50
T1 construct: full-length MALT1 protein (Strep-MALT1(1-824)-His) purified from baculovirus-infected insect cells; Strep (N); His (C); made in house; host or cells: baculovirus-infected insect cells
T1 sequence (Q9UDY8 1-824): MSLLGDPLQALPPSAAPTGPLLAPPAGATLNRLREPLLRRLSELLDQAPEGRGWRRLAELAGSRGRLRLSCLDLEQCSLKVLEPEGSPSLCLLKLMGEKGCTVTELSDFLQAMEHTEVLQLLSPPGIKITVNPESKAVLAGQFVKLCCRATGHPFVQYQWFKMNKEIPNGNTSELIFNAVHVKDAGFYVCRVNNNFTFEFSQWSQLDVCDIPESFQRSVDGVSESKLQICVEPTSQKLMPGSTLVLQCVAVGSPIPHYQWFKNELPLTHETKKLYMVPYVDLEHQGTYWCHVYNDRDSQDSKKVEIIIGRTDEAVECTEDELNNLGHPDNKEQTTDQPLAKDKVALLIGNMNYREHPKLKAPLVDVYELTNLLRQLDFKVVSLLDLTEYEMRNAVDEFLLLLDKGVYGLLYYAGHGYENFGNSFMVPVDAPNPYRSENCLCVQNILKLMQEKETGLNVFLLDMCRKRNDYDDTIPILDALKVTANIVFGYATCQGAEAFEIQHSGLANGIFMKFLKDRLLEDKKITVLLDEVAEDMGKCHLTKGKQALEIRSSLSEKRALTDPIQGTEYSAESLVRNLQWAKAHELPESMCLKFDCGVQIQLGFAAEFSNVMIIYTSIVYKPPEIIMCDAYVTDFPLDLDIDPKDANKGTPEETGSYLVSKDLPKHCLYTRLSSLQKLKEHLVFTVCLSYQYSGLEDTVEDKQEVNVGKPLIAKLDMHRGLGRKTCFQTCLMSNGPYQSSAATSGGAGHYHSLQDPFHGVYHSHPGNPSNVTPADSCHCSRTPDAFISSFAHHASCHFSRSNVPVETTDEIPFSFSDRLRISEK
Method: MALT1 protease activity was assessed in an in vitro assay using a tetrapeptide as substrate and full-length MALT1 protein (Strep-MALT1(1-824)-His) purified from baculovirus-infected insect cells. The tetrapeptide LRSR is coupled to AMC (7-amino-4-methylcoumarin) and provides a quenched, fluorescent substrate for the MALT1 protease (SM Biochemicals). Cleavage of AMC from the Arginine residue results in an increase in coumarin fluorescence measured at 460 nm (excitation 355 nm). The final assay buffer consisted of 10 nM FL MALT1 protein, 200 μM Ac-LRSR-AMC, 50 mM Tris pH 7.5, 0.6 M Citrate, 1 mM DTT, 1 mM EDTA, 0.05% BSA and 1.5% DMSO. Test compounds were spotted at 50 nL in 100% DMSO per well of a black 384-Proxiplate (Perkin Elmer). Test compound concentrations ranged from 30 μM to 0.5 nM using 11 dilution steps (1:3). Background signal was measured from control wells containing assay buffer without enzyme which functions as low control (LC). High control (HC) values were generated using the reaction with enzyme but no compound treatment. Compounds were pre-incubated with MALT1 enzyme for 50 minutes at RT. Substrate was added subsequently and fluorescence was measured in Labsystems fluoroskan at excitation 355 nm and emission 460 nm to determine time 0. The reaction was subsequently incubated for 4 h at RT and fluorescence was measured. For IC50 calculations, timepoint 0 was subtracted from the 4 h timepoint to correct for any potential autofluorescence of the compounds. The enzyme reaction was linear during the 4 h incubation period. Characterization of the substrate Ac-LRSR-AMC determined the Michaelis constant KM at 200 μM.
IC50 values were calculated using the following formula (Z prime should be >0.5): […]
A best-fit curve was fitted by a minimum sum of squares method to the plot of % Controlmin vs. compound concentration. From this an IC50 value (inhibitory concentration causing 50% inhibition) can be obtained. An estimate of the slope of the plot in terms of the Hill coefficient was also obtained.
Used in “Lexis Dose Response Curve Fitting” Version 1.0.

[2] = tested on: secretion of IL10 by OCI-LY3 ABC-DLBCL cells; test: Human IL10 Mesoscale assay (OCI-LY3); type: cell-based; details: 24 h incubation, IL10 in supernatant
Method: (§1) NFKB signaling regulates the secretion of multiple cytokines, including IL6 and IL10. Secretion of the cytokines IL6 and IL10 by OCI-LY3 ABC-DLBCL cells was measured using a mesoscale assay. Inhibition of NFKB signaling by MALT1 inhibitors results in a decrease of IL6/10 secretion.
(§2) OCI-LY3 cells were propagated in RPMI-1640 (Sigma Aldrich) supplemented with 10% fetal bovine serum (HyClone), 1 mM sodium pyruvate (Invitrogen), 2 mM L-glutamine (Sigma Aldrich) and 1% PenStrep (Sigma Aldrich). Cell passage number should not exceed 30. Cells should be kept between 0.5-2.5 million cells per mL during culturing and cells should be supplemented every 2-3 days with fresh 50 μM beta-mercaptoethanol. No beta-mercaptoethanol was used during the mesoscale assay.
(§3) For the Mesoscale assay, 100,000 OCI-LY3 cells were seeded per well into black-colored 96-well plates with clear bottom (Corning #3904) and test compounds were added in 9 dilution steps (1:2) ranging from 15 μM to 58.6 nM (final DMSO concentration 0.3%). DMSO control wells were used to determine the maximum signal (High Control (HC)). Treatment with the BTK inhibitor RN486 in a dose range from 30 nM to […] (9 dilutions of 1:2) served as a positive control for NFKB pathway inhibition and was used to determine the maximum inhibition (Low Control (LC)). Compounds and cells were incubated for 24 h at 37° C. and 5% CO2 (assay volume is 150 μL). After 24 h of incubation 50 μL of the supernatant was transferred to a MSD plate (V-Plex Proinflammation Panel 1 (human) kit, Mesoscale (MSD)) and incubated for 2 h with vigorous shaking (600 rpm) at room temperature. Following incubation, plates were washed 3× with PBS+0.05% Tween-20 and 25 μL detection antibody solution (IL6 & IL10 antibodies in diluent 3 (MSD)) was added per well followed by 2 h of incubation with vigorous shaking (600 rpm) at room temperature. After 3× washes with PBS+0.05% Tween-20, plates were incubated with 150 μL 2× Read Buffer T and read on SECTOR imager.

[3] = tested on: secretion of IL6 by OCI-LY3 ABC-DLBCL cells; test: Human IL6 Mesoscale assay (OCI-LY3); type: cell-based; details: 24 h incubation, IL6 in supernatant
Method: as §1, §2, §3

| IC50 [1] | IC50 [2] | IC50 [3] | SMILES |
| --- | --- | --- | --- |
| 0.05 µM | 0.08 µM | 0.1 µM | COC(C)c1c(NC(=O)Nc2cnc(-n3nccn3)c(Cl)c2)cnc(C)c1Br (stereo not drawn) [Co. 40] |
| 0.02 µM | 0.05 µM | 0.06 µM | CO[C@H](C)c1c(NC(=O)Nc2cnc(-n3nccn3)c(Cl)c2)cnc(C)c1Br [Co. 45] |
| 0.58 µM | 0.85 µM | 0.75 µM | CO[C@@H](C)c1c(NC(=O)Nc2cnc(-n3nccn3)c(Cl)c2)cnc(C)c1Br [Co. 46] |
| 1.02 µM | 0.71 µM | 1.45 µM | CO[C@H](C)c1c(NC(=O)Nc2cnc(C3CC3)c(C(F)(F)F)c2)cnc(C)c1Br [Co. 52] |
| > 30.2 µM | > 15 µM | > 15 µM | CO[C@@H](C)c1c(NC(=O)Nc2cnc(C3CC3)c(C(F)(F)F)c2)cnc(C)c1Br [Co. 53] |
| 0.11 µM | 0.21 µM | 0.58 µM | CO[C@H](C)c1c(NC(=O)Nc2cnc(C3CC3)c(Cl)c2)cnc(C)c1Br [Co. 55] |
| 2.51 µM | 9.33 µM | > 15 µM | CO[C@@H](C)c1c(NC(=O)Nc2cnc(C3CC3)c(Cl)c2)cnc(C)c1Br [Co. 56] |
| 0.2 µM | 0.3 µM | 0.76 µM | CO[C@H](C)c1c(NC(=O)Nc2cnc(-n3nccn3)c(C(F)(F)F)c2)cnc(C)c1Br [Co. 58] |
| 0.22 µM | 0.45 µM | 0.75 µM | CO[C@H](C)c1c(NC(=O)Nc2cnc(-n3nccn3)c(Cl)c2)cnc(C)c1C#N [Co. 62] |
| 0.17 µM | 0.19 µM | 0.68 µM | CO[C@H](C)c1c(NC(=O)Nc2ccnc(C(F)(F)F)c2)cnc(C)c1Cl [Co. 64] |
| 1.95 µM | 1.78 µM | 4.17 µM | CO[C@H](C)c1c(NC(=O)Nc2cnc(C3CC3)c(C(F)(F)F)c2)cnc(C)c1Cl [Co. 67] |
| 0.05 µM | 0.03 µM | 0.06 µM | CO[C@@H](C)c1c(NC(=O)Nc2cnc(OC(F)F)c(Cl)c2)cnc(C)c1C#N [Co. 70] |
| 0.08 µM | 0.06 µM | 0.11 µM | CO[C@@H](C)c1c(NC(=O)Nc2cnc(OC(F)F)c(Cl)c2)cnc(C)c1Cl [Co. 73] |
| 1.35 µM | 0.65 µM | 0.93 µM | CO[C@H](C)c1c(NC(=O)Nc2cnc(OC(F)F)c(Cl)c2)cnc(C)c1Cl [Co. 74] |
| 0.16 µM | 0.11 µM | 0.13 µM | COc1ncc(NC(=O)Nc2cnc(C)c(Cl)c2[C@H](C)OC)cc1C#N [Co. 76] |
| 8.32 µM | 6.03 µM | 7.59 µM | COc1ncc(NC(=O)Nc2cnc(C)c(Cl)c2[C@@H](C)OC)cc1C#N [Co. 77] |
| 0.02 µM | 0.05 µM | 0.09 µM | CO[C@H](C)c1c(NC(=O)Nc2cnc(-n3nccn3)c(C#N)c2)cnc(C)c1Br [Co. 91] |

Continued, molecule first:

| SMILES | IC50 [1] | IC50 [2] | IC50 [3] |
| --- | --- | --- | --- |
| CO[C@@H](C)c1c(Cl)cncc1NC(=O)Nc1cnc(-n2nccn2)c(Cl)c1 [Co. 24] | 4.57 µM | 3.98 µM | 5.62 µM |
| COC(C)c1c(C#N)cncc1NC(=O)Nc1cnc(-n2nccn2)c(Cl)c1 (stereo not drawn) [Co. 25] | 0.24 µM | 0.18 µM | 0.22 µM |
| CO[C@@H](C)c1c(C#N)cncc1NC(=O)Nc1cnc(-n2nccn2)c(Cl)c1 [Co. 26] | 0.19 µM | 0.12 µM | 0.26 µM |
| CO[C@H](C)c1c(C#N)cncc1NC(=O)Nc1cnc(-n2nccn2)c(Cl)c1 [Co. 27] | 2.1 µM | 1.6 µM | 2.8 µM |
| CCOC(=O)c1cncc(NC(=O)Nc2cnc(-n3nccn3)c(Cl)c2)c1[C@@H](C)OC [Co. 36] | 0.23 µM | 0.14 µM | 0.22 µM |
| CCOC(=O)c1cncc(NC(=O)Nc2cnc(-n3nccn3)c(Cl)c2)c1[C@H](C)OC [Co. 37] | 1.48 µM | 1.66 µM | 2.75 µM |
| COc1c(C)ncc(NC(=O)Nc2cnc(-n3nccn3)c(Cl)c2)c1[C@@H](C)OC [Co. 42] | 0.54 µM | 0.98 µM | 1.1 µM |
| COc1c(C)ncc(NC(=O)Nc2cnc(-n3nccn3)c(Cl)c2)c1[C@H](C)OC [Co. 43] | 12 µM | > 15 µM | > 15 µM |
| CO[C@@H](C)c1c(NC(=O)Nc2cnc(-n3nccn3)c(Cl)c2)cnc(C)c1C#N [Co. 61] | 0.04 µM | 0.09 µM | 0.13 µM |
| COc1nc(-n2nccn2)c(Cl)cc1NC(=O)Nc1cnc(C)c(C#N)c1[C@@H](C)OC [Co. 79] | 0.02 µM | 0.06 µM | 0.11 µM |
| COc1nc(-n2nccn2)c(Cl)cc1NC(=O)Nc1cnc(C)c(C#N)c1[C@H](C)OC [Co. 80] | 0.05 µM | 0.09 µM | 0.15 µM |
| COc1nc(-n2nccn2)c(Cl)cc1NC(=O)Nc1cnc(C)c(Cl)c1[C@@H](C)OC [Co. 82] | 0.05 µM | 0.09 µM | 0.12 µM |
| COc1nc(-n2nccn2)c(Cl)cc1NC(=O)Nc1cnc(C)c(Cl)c1[C@H](C)OC [Co. 83] | 0.35 µM | 0.18 µM | 0.5 µM |
| COc1nc(-n2nccn2)c(Cl)cc1NC(=O)Nc1cnc(C)c(Br)c1[C@@H](C)OC [Co. 85] | 0.03 µM | 0.05 µM | 0.1 µM |
| CO[C@H](C)c1c(NC(=O)Nc2cc(Cl)c(-n3nccn3)nc2C)cnc(C)c1C#N [Co. 88] | 0.1 µM | 0.17 µM | 0.29 µM |
| CO[C@@H](C)c1c(NC(=O)Nc2cc(Cl)c(-n3nccn3)nc2C)cnc(C)c1C#N [Co. 89] | 0.11 µM | 0.16 µM | 0.25 µM |
